Source: patent US20120022048A1, “Anti-proliferative substituted pyrazolo[3,4-d]pyrimidines derivatives (SPP) to inhibit immune activation, virus replication and tumor growth” (priority 2010, published 2012)

Assays:
Format in all cases: cell-based
[1] = test system: primary human CD4 T-lymphocytes; assay: Apoptosis in primary CD4 T cells (Annexin V and 7-AAD staining); settings: SPPs 10 μM; for apoptotic effect (in words): compared with HU 100 μM, HU+ddI or untreated control; for apoptosis %: total apoptotic events compared to untreated control, day 10, Imatinib 10 μM, HU 100 μM, ddI 2 μM
Procedure: (§1) Unstimulated (quiescent/resting, day 0 to 5) primary human CD4 T-lymphocytes were obtained by magnetic bead separation from healthy, normal donors. After five days in culture, cells were activated with PHA (5 μg/ml) to induce hyperproliferation then, at day 7, IL-2 (20 U/ml) was added (stimulated, day 6 to 10). All available compounds were tested at a concentration of 10 μM. […] At day 10, cells were harvested. Proliferation of T cells, cultured as described above, was studied by staining the cells with carboxyfluorescein diacetate-succinimidyl ester (CFSE) at day 0 (immediately after infection). For data analysis, the mitotic index (M) was used, calculating the sum of mitotic events at each proliferation cycle. To extract a relative number, M was normalized to the total number of cells acquired using the equation M=Σ[(Xn(T)−Xn(T)/2^n)], that gives the number of mitotic events from the experimentally obtained values of the proportion of T cells under each division peak n (Xn) and the total T cells (T). To study the effect of the compounds on apoptosis T cells were cultured as described above and at day 10 cells were stained with Annexin V and 7-AAD, in order to determine the percentage of total apoptotic events.
We determined the capacity of the compounds to affect the percentages of apoptotic events after 10 days of treatment in primary CD4 T cells.

[2] = test system: primary human CD4 T-lymphocytes; assay: Cell hyperproliferation in primary T cells (CFSE staining, mitotic index); settings: for mitotic index %: % of not treated control (100%), day 10, HU 100 μM; for mitotic index % / anti-proliferative activity (in words): SPPs 10 μM, Imatinib 10 μM; for anti-proliferative activity (in words): compared with HU 100 μM, HU+ddI or untreated control; for Anti-proliferative capacity: class symbol, Table 6
Procedure: We built up an experimental model using primary T cells to study the activity of the compounds on induced hyperproliferation of cells, which is a characteristic of both chronic viral diseases and cancer including HIV and leukemia.
as §1

HIV-1 NL 4.3 [3] = assay: HIV-1 replication in activated T cells (PBMC, p24 Ag ELISA); settings: for HIV activated cells (% p24 compared to not treated control): activated T cells, 7 days, SPPs and Imatinib 10 μM, HU 100 μM, ddI 2 μM; for Antiviral activity in activated cells: class symbol, Table 6; for anti-HIV activity in activated T cells (in words): SPPs 10 μM, compared with HU 100 μM, HU+ddI or untreated control
Procedure: The experimental setup described below allows us to detect direct antiviral activity of a compound.
Human PBMC, obtained from healthy, normal donors, were stimulated for two days with PHA 5 μg/ml. Then cells were infected with HIV-1 NL 4.3, IL-2 was added (20 U/ml), cells were plated (10^5 cells per well in 200 μl) and drug treatment started. […] The control was left untreated. After 7 days of incubation at 37° C. supernatants were harvested and HIV-1 p24 Ag was measured by ELISA.

HIV-1 NL 4.3 [4] = assay: HIV-1 replication in quiescent CD4 T cells (p24 Ag ELISA); settings: for anti-HIV activity in quiescent cells (in words) / HIV quiescent cells (percentage p24 compared to the untreated control): SPPs 10 μM; for anti-HIV activity in quiescent cells (in words): compared with HU 100 μM, HU+ddI or untreated control; for Antiviral activity in quiescent cells: class symbol, Table 6; for HIV quiescent cells (percentage p24 compared to the untreated control): quiescent CD4 T cells, day 10, HU 100 μM, HU 100 μM+ddI 2 μM
Procedure: Unstimulated (quiescent/resting, day 0 to 5) human CD4 T-lymphocytes, obtained by magnetic bead separation from healthy, normal donors, were infected with HIV-1 NL 4.3. After five days in culture, cells were stimulated with PHA (5 μg/ml) to induce proliferation, and then, at day 7, IL-2 (20 U/ml) was added (stimulated, day 6 to 10). All available compounds were tested at a concentration of 10 μM. HU 100 μM and HU 100 μM+ddI 2 μM were also employed as comparators and the negative control was left untreated. At day 10, cells and supernatants were harvested and HIV-1 p24 Ag was measured by ELISA. HIV replication was expressed as percentage p24 compared to the untreated control.

Row | Structure (SMILES) | apoptotic effect (in words) [1] | apoptosis % [1] | mitotic index % [2] | anti-proliferative activity (in words) [2] | Anti-proliferative capacity [2] | HIV activated cells (% p24 compared to not treated control) (HIV-1 NL 4.3 [3]) | Antiviral activity in activated cells (HIV-1 NL 4.3 [3]) | anti-HIV activity in quiescent cells (in words) (HIV-1 NL 4.3 [4]) | Antiviral activity in quiescent cells (HIV-1 NL 4.3 [4]) | HIV quiescent cells (percentage p24 compared to the untreated control) (HIV-1 NL 4.3 [4]) | anti-HIV activity in activated T cells (in words) (HIV-1 NL 4.3 [3]) | inhibition at 10 µM ([2]; Homo sapiens, T-lymphocyte, read-out: decrease/inhibition of cell proliferation compared to not treated control)
1 | CCSc1nc(NCCc2ccccc2)c2cnn(CC(Cl)c3ccccc3)c2n1 (centres unmarked) [VS1-026] | not proapoptotic | 135.3 ± 15.7% | 24.9 ± 16.6% | equal to or a little less anti-proliferative than HU | +++ (excellent (+++, greater than 70% activity)) | 19.6 ± 12.6% | +++ (excellent (+++, greater than 70% activity)) | slightly less potent against HIV | ++ (good (++, 50 to 70% activity)) | 29.3 ± 6.9% | – | –
2 | CSc1nc(Nc2cccc(Cl)c2)c2cnn(CC(Cl)c3ccc(F)cc3)c2n1 (centres unmarked) [VS1-022] | proapoptotic | 178.0 ± 25.7% | 10.4 ± 11.4% | as anti-proliferative or even better than HU | – | 37.1 ± 19.8% | – | effective against HIV | – | 5.4 ± 3.1% | effective against HIV | –
3 | BrC(Cn1ncc2c(NC3CCCCC3)ncnc21)c1ccccc1 (centres unmarked) [VS1-007] | – | – | 87.0% | poor performance | – | 70.6 ± 24.3% | – | – | – | 75.7 ± 18.8% | no effect on HIV replication | –
4 | CSc1nc(NCc2ccccc2Cl)c2cnn(CC(Cl)c3ccccc3)c2n1 (centres unmarked) [VS1-036] | did not induce apoptosis | 139.3 ± 41.6% | 12.0 ± 6.4% | greater or equal to that of 100 μM HU | +++ (excellent (+++, greater than 70% activity)) | 22.1 ± 5.7% | +++ (excellent (+++, greater than 70% activity)) | effective against HIV | +++ (excellent (+++, greater than 70% activity)) | 14.5 ± 4.0% | effective against HIV | –
5 | CCCCNc1nc(SC)nc2c1cnn2CC(Cl)c1ccccc1 (centres unmarked) [VS1-024] | not proapoptotic | 126.7 ± 23.9% | 45.5 ± 10.9% | equal to or a little less anti-proliferative than HU | ++ (good (++, 50 to 70% activity)) | 10.1 ± 7.4% | +++ (excellent (+++, greater than 70% activity)) | slightly less potent against HIV | +++ (excellent (+++, greater than 70% activity)) | 24.3 ± 9.4% | – | –
6 | CCCNc1nc(SCCN2CCOCC2)nc2c1cnn2CC(Cl)c1ccccc1 (centres unmarked) [VS1-025] | – | 139.3 ± 20.8% | 61.6 ± 12.7% | poor activity | – | 74.2 ± 31.7% | – | – | – | 23.6 ± 14.5% | poor activity | –
7 | CCCNc1nc(N(C)C)nc2c1cnn2CC(Cl)c1ccccc1 (centres unmarked) [VS1-023] | not proapoptotic | 116.0 ± 14.7% | 33.2 ± 6.5% | – | – | 36.6 ± 15.1% | – | – | – | 8.7 ± 5.6% | – | –
8 | CCCNc1nc(SC)nc2c1cnn2CC(Cl)c1ccccc1 (centres unmarked) [VS1-031] | did not induce apoptosis | 114.4 ± 39.9% | 23.9 ± 18.4% | greater or equal to that of 100 μM HU | +++ (excellent (+++, greater than 70% activity)) | 31.6 ± 21.7% | ++ (good (++, 50 to 70% activity)) | effective against HIV | +++ (excellent (+++, greater than 70% activity)) | 19.1 ± 1.8% | effective against HIV | –
9 | C(=Cn1ncc2c(NCc3ccccc3)ncnc21)c1ccccc1 [VS1-013] | – | 121.3 ± 14.1% | 85.6 ± 3.6% | – | – | 116.4 ± 21.1% | – | – | – | 63.3 ± 26.0% | – | –
10 | CSc1nc(Nc2cccc(Cl)c2)c2cnn(C=Cc3ccccc3)c2n1 [VS1-016] | – | 88.0 ± 12.7% | 71.2 ± 5.8% | – | – | 21.0 ± 6.3% | – | – | – | 23.6 ± 22.1% | better anti-HIV activity than HU | –
11 | CSc1nc(NCc2ccccc2)c2cnn(C=Cc3ccccc3)c2n1 [VS1-019] | – | 94.0 ± 11.2% | 81.3 ± 18.9% | poor activity | – | 89.3 ± 25.5% | – | – | – | 46.7 ± 31.3% | poor activity | –
12 | CSc1nc(NCc2ccc(F)cc2)c2cnn(CC(Cl)c3ccccc3)c2n1 (centres unmarked) [VS1-017] | – | 130.0 ± 19.3% | 34.5 ± 6.7% | poor activity | – | 63.4 ± 31.2% | – | – | – | 38.7 ± 44.5% | poor activity | –
13 | CCCCNc1ncnc2c1cnn2CC(Br)c1ccccc1 (centres unmarked) [VS1-006] | – | – | 54.0% | not effective | – | 100.5 ± 26.4% | – | – | – | 17.8 ± 2.5% | not effective | –
14 | Cc1ccc(NC(=O)c2ccc(CN3CCN(C)CC3)cc2)cc1Nc1nccc(-c2cccnc2)n1 [Imatinib, reference compound] | no significant increases | – | – | – | – | – | – | – | – | – | comparable antiviral capacity | 62%
